Data on 25 molecules can be found in paper PMC11726654, “Discovery of MDI-114215: A Potent and Selective LIMK Inhibitor To Treat Fragile X Syndrome” (Journal of Medicinal Chemistry, 2024).

Structures are written as SMILES. Bounds are passed on as bounds.

One data set deals with LIMK2 (Homo sapiens, UniProt P53671). Nature of the data set: RapidFire mass spectrometry kinase assay (cofilin phosphorylation). The data set is classed as biochemical. The following applies: non-phosphorylated LIMK2; mean ± SEM; read-out: Enzymatic (RapidFire) pIC50 LIMK2 (converted).
LIMK2, sequence (P53671 whole entry): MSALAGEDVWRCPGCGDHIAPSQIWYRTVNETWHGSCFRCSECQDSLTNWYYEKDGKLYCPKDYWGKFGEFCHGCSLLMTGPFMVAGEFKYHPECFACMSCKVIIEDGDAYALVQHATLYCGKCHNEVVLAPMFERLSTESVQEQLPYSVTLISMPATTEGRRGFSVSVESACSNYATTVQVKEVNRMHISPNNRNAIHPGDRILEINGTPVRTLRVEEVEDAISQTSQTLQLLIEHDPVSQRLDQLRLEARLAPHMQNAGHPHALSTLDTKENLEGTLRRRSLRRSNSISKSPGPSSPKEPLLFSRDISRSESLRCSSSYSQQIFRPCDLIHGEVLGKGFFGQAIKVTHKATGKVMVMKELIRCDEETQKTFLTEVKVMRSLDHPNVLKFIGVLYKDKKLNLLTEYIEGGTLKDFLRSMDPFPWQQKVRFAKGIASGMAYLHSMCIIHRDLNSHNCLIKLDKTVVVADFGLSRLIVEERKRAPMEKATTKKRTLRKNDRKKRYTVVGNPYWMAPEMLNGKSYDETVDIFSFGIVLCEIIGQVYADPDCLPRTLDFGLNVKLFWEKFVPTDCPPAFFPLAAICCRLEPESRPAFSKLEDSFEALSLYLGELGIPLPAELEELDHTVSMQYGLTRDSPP
The next data set deals with LIMK1 (Homo sapiens, UniProt P53667). The data set is described as above. The data set is classed as biochemical. The following applies: non-phosphorylated LIMK1; mean ± SEM; read-out: Enzymatic (RapidFire) pIC50 LIMK1 (converted).
LIMK1, sequence (P53667 whole entry): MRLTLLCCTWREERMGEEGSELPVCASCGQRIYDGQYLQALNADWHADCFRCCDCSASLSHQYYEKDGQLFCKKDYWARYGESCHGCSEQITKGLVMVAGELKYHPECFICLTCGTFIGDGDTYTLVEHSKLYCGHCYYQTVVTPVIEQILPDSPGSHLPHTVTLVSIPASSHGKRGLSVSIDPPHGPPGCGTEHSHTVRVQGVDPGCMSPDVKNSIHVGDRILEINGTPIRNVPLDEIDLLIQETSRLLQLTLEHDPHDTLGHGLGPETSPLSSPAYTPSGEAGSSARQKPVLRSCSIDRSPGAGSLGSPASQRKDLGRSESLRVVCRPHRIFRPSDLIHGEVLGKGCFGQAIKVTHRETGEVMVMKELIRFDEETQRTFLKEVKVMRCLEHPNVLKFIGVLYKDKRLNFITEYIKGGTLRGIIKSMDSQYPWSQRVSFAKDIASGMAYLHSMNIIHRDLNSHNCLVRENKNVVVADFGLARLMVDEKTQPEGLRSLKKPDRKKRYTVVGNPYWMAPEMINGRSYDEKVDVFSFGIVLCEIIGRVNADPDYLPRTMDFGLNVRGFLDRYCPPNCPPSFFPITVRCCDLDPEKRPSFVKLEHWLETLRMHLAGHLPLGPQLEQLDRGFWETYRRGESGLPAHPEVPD
A short description of data set [1]: Microsomal stability. The following applies: for microsomal CLint at 2 μM / microsomal CLint at 0.5 h, 2 µM: human, microsomes, pH 7.4.
The nature of data set [2]: Microsomal stability. The settings on record: for Microsomal CLint Rat: rat microsomes, 2 μM compound.

For the molecule `CCCCN(Cc1ccccc1)C(=O)c1ccc(S(=O)(=O)Nc2ccccc2)cc1F` [Compound 21, N-Benzyl-N-butyl-2-fluoro-4-(phenylsulfamoyl)benzamide], the IC50 is 30.2 nM on LIMK2 and 407 nM at LIMK1.
Turning to `CCCCN(Cc1ccccc1)C(=O)c1ccc(S(=O)(=O)Nc2ccccc2)cc1C` [Compound 22, N-Benzyl-N-butyl-2-methyl-4-(phenylsulfamoyl)benzamide], the IC50 on LIMK2 was 148 nM; on LIMK1, 2140 nM.
Taken in the same sequence, the figures for `CCCCN(Cc1ccccc1)C(=O)c1ccc(S(=O)(=O)Nc2ccccc2)cn1` [Compound 23, N-Benzyl-N-butyl-5-(phenylsulfamoyl)pyridine-2-carboxamide] were 166 nM and 1350 nM.
In the case of `CCCCN(Cc1ccccc1)C(=O)c1cnc(S(=O)(=O)Nc2ccccc2)nc1` [Compound 24, N-Benzyl-N-butyl-2-(phenylsulfamoyl)pyrimidine-5-carboxamide], the IC50 on LIMK2 is 1740 nM; on LIMK1, 891 nM.
Taken in the same sequence, the figures for `CCCCN(Cc1ccccc1)C(=O)c1ccc(S(=O)(=O)Cc2ccccc2)cc1` [Compound 29, N-Benzyl-4-benzylsulfonyl-N-butyl-benzamide] were 468 nM and over 10000 nM.
Taken in the same sequence, the figures for `CCCCN(Cc1ccccc1)C(=O)c1coc(S(=O)(=O)Nc2ccccc2)c1` [Compound 30, N-Benzyl-N-butyl-5-(phenylsulfamoyl)furan-3-carboxamide] were 933 nM and 6920 nM.
With `CCCCN(Cc1ccccc1)C(=O)c1ccc(S(=O)(=O)NC)cc1` [Compound 34, N-Benzyl-N-butyl-4-(N-methylsulfamoyl)benzamide], the IC50 at LIMK2 and on LIMK1 was over 10000 nM in each case.
With `CCCCN(Cc1ccccc1)C(=O)c1ccc(S(=O)(=O)Nc2ccncc2)cc1` [Compound 35, N-Benzyl-N-butyl-4-(N-(pyridin-4-yl)sulfamoyl)benzamide], the IC50 on LIMK2 and on LIMK1 was over 10000 nM in each case.
Consider `CCCCN(Cc1ccccc1)C(=O)c1ccc(S(=O)(=O)Nc2cnoc2)cc1` [Compound 36, N-Benzyl-N-butyl-4-(isoxazol-4-ylsulfamoyl)benzamide], for which the IC50 on LIMK2 is 6610 nM; at LIMK1, over 10000 nM.
On to `CCCCN(Cc1ccccc1)C(=O)c1ccc(S(=O)(=O)NC2CCC2)cc1` [Compound 37, N-Benzyl-N-butyl-4-(N-cyclobutylsulfamoyl)benzamide], for which the IC50 was 372 nM at LIMK2 and 4470 nM on LIMK1.
With `CCCCN(Cc1ccccc1)C(=O)c1ccc(S(=O)(=O)NC2COC2)cc1` [Compound 38, N-Benzyl-N-butyl-4-(N-(oxetan-3-yl)sulfamoyl)benzamide], the IC50 at LIMK2 and at LIMK1 was over 10000 nM each time.
As for `CCCCN(Cc1ccc(F)cc1)C(=O)c1ccc(S(=O)(=O)Nc2ccccc2)cc1` [Compound 39, N-Butyl-N-(4-fluorobenzyl)-4-(N-phenylsulfamoyl)benzamide], the microsomal CLint at 2 μM in “Microsomal stability [1]” turned out to be 409 µL/min/mg; in “Microsomal stability [2]” (rat, microsomes, pH 7.4), 942 µL/min/mg. Besides, the IC50 at LIMK1 was 195 nM.
For the molecule `CCCCN(Cc1ccc(OC)cc1)C(=O)c1ccc(S(=O)(=O)Nc2ccccc2)cc1` [Compound 40, N-Butyl-N-(4-methoxybenzyl)-4-(N-phenylsulfamoyl)benzamide], the microsomal CLint at 2 μM in “Microsomal stability [1]” stood at 280 µL/min/mg; in the data set “Microsomal stability [2]” (rat, microsomes, pH 7.4) it was 978 µL/min/mg. Besides, the IC50 on LIMK2 is 39.8 nM; on LIMK1, 447 nM.
Taken in the same sequence, the figures for `CCCCN(Cc1cccc(OC)c1)C(=O)c1ccc(S(=O)(=O)Nc2ccccc2)cc1` [Compound 41, N-Butyl-N-(3-methoxybenzyl)-4-(N-phenylsulfamoyl)benzamide] were 556 µL/min/mg, 783 µL/min/mg, 224 nM and 1620 nM.
With `CCCCN(Cc1ccccc1OC)C(=O)c1ccc(S(=O)(=O)Nc2ccccc2)cc1` [Compound 42, N-Butyl-N-(2-methoxybenzyl)-4-(N-phenylsulfamoyl)benzamide], the microsomal CLint at 2 μM in the data set “Microsomal stability [1]” is 812 µL/min/mg; in “Microsomal stability [2]” (rat, microsomes, pH 7.4), 827 µL/min/mg. For the same molecule, the results for the IC50 on LIMK2 and at LIMK1 were 1170 nM and 2570 nM, respectively.
Turning to `CCCCN(Cc1ccncc1)C(=O)c1ccc(S(=O)(=O)Nc2ccccc2)cc1` [Compound 43, N-Butyl-4-(N-phenylsulfamoyl)-N-(pyridin-4-ylmethyl)benzamide], the intrinsic metabolic clearance (microsomal CLint) at 2 μM in the data set “Microsomal stability [1]” worked out at 144 µL/min/mg; in “Microsomal stability [2]” (rat, microsomes, pH 7.4), 484 µL/min/mg. Moreover, the IC50 at LIMK2 is 19.1 nM; at LIMK1, 977 nM.
With `CCCCN(Cc1cccnc1)C(=O)c1ccc(S(=O)(=O)Nc2ccccc2)cc1` [Compound 44, N-Butyl-4-(N-phenylsulfamoyl)-N-(pyridin-3-ylmethyl)benzamide], in the data set “Microsomal stability [1]”, the intrinsic metabolic clearance (microsomal CLint) at 2 μM worked out at 234 µL/min/mg. The IC50 at LIMK2 is 1510 nM; at LIMK1, 8130 nM. In addition, the “Microsomal CLint Rat” value in “Microsomal stability [2]” is “Rapid”.
Turning to `CCCCN(Cc1ccccn1)C(=O)c1ccc(S(=O)(=O)Nc2ccccc2)cc1` [Compound 45, N-Butyl-4-(N-phenylsulfamoyl)-N-(pyridin-2-ylmethyl)benzamide], in the data set “Microsomal stability [1]”, the microsomal CLint at 2 μM was 256 µL/min/mg. The IC50 at LIMK2 is 51.3 nM; at LIMK1 it was 1290 nM. Further, in the data set “Microsomal stability [2]”, the “Microsomal CLint Rat” value was “Rapid”.
Turning to `CCCCN(Cc1ccco1)C(=O)c1ccc(S(=O)(=O)Nc2ccccc2)cc1` [Compound 46, N-Butyl-N-(furan-2-ylmethyl)-4-(N-phenylsulfamoyl)benzamide], the “Microsomal CLint Human” value in the data set “Microsomal stability [1]” (human microsomes, 2 μM compound) was “Rapid”. Also, at LIMK1, the IC50 was 347 nM. Besides, the “Microsomal CLint Rat” value in “Microsomal stability [2]” is reported as “Rapid”.
On to `CCN(Cc1ccccc1)C(=O)c1ccc(S(=O)(=O)Nc2ccccc2)cc1` [Compound 52, N-Benzyl-N-ethyl-4-(N-phenylsulfamoyl)benzamide], for which the microsomal CLint at 2 μM in “Microsomal stability [1]” is 720 µL/min/mg. Further, the “Microsomal CLint Rat” value in the data set “Microsomal stability [2]” is given as “Rapid”.
As for `O=C(c1ccc(S(=O)(=O)Nc2ccccc2)cc1)N(CCO)Cc1ccccc1` [Compound 53, N-Benzyl-N-(2-hydroxyethyl)-4-(N-phenylsulfamoyl)benzamide], the microsomal CLint at 2 μM in the data set “Microsomal stability [1]” amounted to 76 µL/min/mg. Besides, at LIMK1, the IC50 was 209 nM. Also, in “Microsomal stability [2]”, the “Microsomal CLint Rat” value is “Rapid”.
The molecule `O=C(c1ccc(S(=O)(=O)Nc2ccccc2)cc1)N(Cc1ccccc1)CC1CC1` [Compound 57, N-Benzyl-N-(cyclopropylmethyl)-4-(phenylsulfamoyl)benzamide] returned an intrinsic metabolic clearance (microsomal CLint) at 0.5 h, 2 µM in “Microsomal stability [1]” of 495 µL/min/mg. The “Microsomal CLint Rat” value in “Microsomal stability [2]” is listed as “Rapid”.
Consider `Nc1ccc(CN(CC2CC2)C(=O)c2ccc(S(=O)(=O)Nc3ccccc3)cc2)nc1` [Compound 72, N-[(5-Amino-2-pyridyl)methyl]-N-(cyclopropylmethyl)-4-(phenylsulfamoyl)benzamide], for which the microsomal CLint at 0.5 h, 2 µM in the data set “Microsomal stability [1]” was determined as 36 µL/min/mg; in the data set “Microsomal stability [2]” (rat, microsomes, pH 7.4) it was 431 µL/min/mg.
Regarding `CN(C)CCNc1ccc(CN(CC2CC2)C(=O)c2ccc(S(=O)(=O)Nc3ccccc3)cc2)nc1` [Compound 78, N-(Cyclopropylmethyl)-N-[[5-[2-(dimethylamino)ethylamino]-2-pyridyl]methyl]-4-(phenylsulfamoyl)benzamide], the microsomal CLint at 2 μM in “Microsomal stability [1]” worked out at 23 µL/min/mg; in “Microsomal stability [2]” (rat, microsomes, pH 7.4) it was 31 µL/min/mg.
As to `CCN(Cc1ccc(NCCO)cn1)C(=O)c1ccc(S(=O)(=O)Nc2ccccc2)cc1` [Compound 80, N-Ethyl-N-[[5-(2-hydroxyethylamino)-2-pyridyl]methyl]-4-(phenylsulfamoyl)benzamide], the microsomal CLint at 2 μM amounted to 12 µL/min/mg in the data set “Microsomal stability [1]” and 51 µL/min/mg in the data set “Microsomal stability [2]” (rat, microsomes, pH 7.4).
